Laboratory results as given in ChEMBL document CHEMBL4330155, “NaBr-Induced Production of Brominated Azaphilones and Related Tricyclic Polyketides by the Marine-Derived Fungus Penicillium janthinellum HK1-6” (J Nat Prod, 2019).
≈ marks a conversion by molar mass, not a printed value.

Tests used:
[1] = test system: SMMC-7721; assay: Cytotoxicity again human SMMC7721 cells by MTT method; format: cell-based
[2] = test system: Escherichia coli; assay: microbe, parasite or virus in culture; format: functional; details: ATCC 25922
Description: Antibacterial activity against Escherichia coli ATCC 25922 by XTT dye based assay

[3] = test system: Enterococcus faecalis; assay: microbe, parasite or virus in culture; format: functional; details: ATCC 51299
Description: Antibacterial activity against Enterococcus faecalis ATCC 51299 by XTT dye based assay

[4] = test system: Staphylococcus aureus; assay: Antibacterial activity against Staphylococcus aureus ATCC 43300 by XTT dye based assay; format: functional
[5] = test system: Staphylococcus aureus; assay: Antibacterial activity against Staphylococcus aureus ATCC 29213 by XTT dye based assay; format: functional
[6] = test system: Enterococcus faecium; assay: Antibacterial activity against Enterococcus faecium ATCC 35667 by XTT dye based assay; format: functional
[7] = test system: Staphylococcus aureus; assay: Antibacterial activity against Staphylococcus aureus ATCC 25923 by XTT dye based assay; format: functional
[8] = test system: Staphylococcus aureus; assay: Antibacterial activity against Staphylococcus aureus ATCC 33591 by XTT dye based assay; format: functional

CCCCCC[C@H](C)/C=C(\C)C(=O)O[C@@]1(C)C(=O)C=C2C=C(C3=C(C)C[C@@H](O)CC3=O)OC=C2C1=O
IC50 [1]: > 10 µM

CCCCCC[C@H](C)/C=C(\C)C(=O)O
MIC [2]: > 50 µg/mL | MIC [3]: > 50 µg/mL | MIC [4]: 25 µg/mL (≈ 126 µM) | MIC [5]: > 50 µg/mL | MIC [6]: > 50 µg/mL | MIC [7]: > 50 µg/mL | MIC [8]: 25 µg/mL (≈ 126 µM)

Cc1cccc(O)c1C1=CC2=C(Cl)C(=O)[C@@](C)(O)C(=O)C2=CO1
IC50 [1]: > 10 µM

CCCCCC[C@H](C)/C=C(\C)C(=O)O[C@]1(C)C(=O)C2=COC(C3=C(C)C[C@@H](O)CC3=O)=CC2=C(Br)C1=O
MIC [2]: > 50 µg/mL | MIC [3]: 25 µg/mL (≈ 43.4 µM) | MIC [4]: 50 µg/mL (≈ 86.9 µM) | MIC [5]: 25 µg/mL (≈ 43.4 µM) | MIC [6]: 25 µg/mL (≈ 43.4 µM) | MIC [7]: 12.5 µg/mL (≈ 21.7 µM) | IC50 [1]: > 10 µM | MIC [8]: 12.5 µg/mL (≈ 21.7 µM)

CCCCCC[C@H](C)/C=C(\C)C(=O)O[C@@]1(C)C(=O)C2=COC(c3c(C)cccc3O)=CC2=C(Cl)C1=O
IC50 [1]: > 10 µM

CCCCCC[C@H](C)/C=C(\C)C(=O)O[C@@]1(C)C(=O)c2c(cc(O)c3c(C)cccc23)[C@](C)(O)C1=O
MIC [2]: > 50 µg/mL | MIC [3]: > 50 µg/mL | MIC [4]: > 50 µg/mL | MIC [5]: > 50 µg/mL | MIC [6]: > 50 µg/mL | MIC [7]: > 50 µg/mL | MIC [8]: > 50 µg/mL

CCCCCC[C@H](C)/C=C(\C)C(=O)O[C@@]1(C)C(=O)C2=COC(C3=C(C)CC(O)CC3=O)=CC2=C(Cl)C1=O (some centres not stated)
IC50 [1]: > 10 µM

CCCCCC[C@H](C)/C=C(\C)C(=O)O[C@@]1(C)C(=O)C=C2C=C(c3c(C)cccc3O)OC=C2C1=O
IC50 [1]: > 10 µM

CN[C@H](CC(C)C)C(=O)N[C@H]1C(=O)N[C@@H](CC(N)=O)C(=O)N[C@H]2C(=O)N[C@H]3C(=O)N[C@H](C(=O)N[C@H](C(=O)O)c4cc(O)cc(O)c4-c4cc3ccc4O)[C@H](O)c3ccc(c(Cl)c3)Oc3cc2cc(c3O[C@@H]2O[C@H](CO)[C@@H](O)[C@H](O)[C@H]2O[C@H]2C[C@](C)(N)[C@H](O)[C@H](C)O2)Oc2ccc(cc2Cl)[C@H]1O.Cl [VANCOMYCIN HYDROCHLORIDE]
MIC [2]: > 50 µg/mL | MIC [3]: > 50 µg/mL | MIC [4]: 0.78 µg/mL | MIC [5]: 0.78 µg/mL | MIC [6]: 0.78 µg/mL | MIC [7]: 0.78 µg/mL | MIC [8]: 1.56 µg/mL

Cc1onc(-c2ccccc2)c1C(=O)N[C@@H]1C(=O)N2[C@@H]1SC(C)(C)[C@@H]2C(=O)[O-].[Na+]
MIC [2]: > 50 µg/mL | MIC [3]: > 50 µg/mL | MIC [4]: > 50 µg/mL | MIC [5]: 0.39 µg/mL | MIC [6]: > 50 µg/mL | MIC [7]: 0.2 µg/mL | MIC [8]: > 50 µg/mL

CCCCCC[C@H](C)/C=C(\C)C(=O)O[C@]1(C)C(=O)C2=COC(c3c(C)cccc3O)=CC2=C(Br)C1=O
MIC [2]: > 50 µg/mL | MIC [3]: 3.13 µg/mL (≈ 5.61 µM) | MIC [4]: 12.5 µg/mL (≈ 22.4 µM) | MIC [5]: 12.5 µg/mL (≈ 22.4 µM) | MIC [6]: 12.5 µg/mL (≈ 22.4 µM) | MIC [7]: 6.25 µg/mL (≈ 11.2 µM) | IC50 [1]: > 10 µM | MIC [8]: 3.13 µg/mL (≈ 5.61 µM)

CCCCCC[C@H](C)/C=C(\C)C(=O)O[C@@]1(C)C(=O)c2c(cc(O)c3c2C[C@H](O)C[C@]3(C)O)[C@](C)(O)C1=O
MIC [2]: > 50 µg/mL | MIC [3]: 12.5 µg/mL (≈ 24.2 µM) | MIC [4]: 12.5 µg/mL (≈ 24.2 µM) | MIC [5]: 12.5 µg/mL (≈ 24.2 µM) | MIC [6]: 25 µg/mL (≈ 48.4 µM) | MIC [7]: > 50 µg/mL | MIC [8]: 3.13 µg/mL (≈ 6.06 µM)

Cc1cccc(O)c1C1=CC2=CC(=O)[C@](C)(O)C(=O)C2=CO1
IC50 [1]: > 10 µM
